Experiment: recombinant barcode read abundance after kanamycin selection (control-corrected) (log10(CPM+1)); higher = more efficient recombination; sequences stand for … in AGTGCAGAGAAAATCGGCCAGTTTTCTCTGCCTGCAGTCCGCATGCCGT…AGATTTATGCAGCGGACTGCCTTTCTCCCAAAGTGATAAACCGGACAGTATCATGGACCGGTTTTCCCGGTAATCCGTATTTGCAAGGTTGGTTTCACT; site = the 11-nt target
Summary of the method: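 In a pooled screen in E. coli, targets were paired with target-binding loops of the IS621 bridge RNA. Each oligo carried a promoter, a target, a barcode and the first 104 bridge RNA bases driven by J23119, and was Gibson-cloned into a vector holding the remaining 73 bp and a T7-inducible recombinase before co-electroporation with a donor plasmid. Duplicate platings went onto chloramphenicol/ampicillin LB agar as the control or onto chloramphenicol/ampicillin/kanamycin with 0.1 mM IPTG. Recombination efficiency is the averaged, control-corrected count per million of barcodes at recombinant junctions, given as log10(CPM+1).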
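Also: IS621 recombinase and bridge RNA in Escherichia coli cells.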

Sequence	recombinant barcode read abundance (log10)
AGTGAACCTTGGGTTCTAACCTGTTGCCT (site AGTGAACCTAG)	1.84
AGTGAATCTTGGGTTCTAACCTGTTGCCT (site AGAGAATCTAG)	0.13
AGTGAATCTTGGGTTCTAACCTGTTGCCT (site AGCGAATCTAG)	0.249
AGTGAATCTTGGGTTCTAACCTGTTGCCT (site AGGGAATCTAG)	0.286
AGTGAATCTTGGGTTCTAACCTGTTGCCT (site AGTGAATCTAG)	0.541
AGTGCGTCTTGGGTTCTAACCTGTTGCCT (site AGTGCGTCTAG)	1.52
AGTGCGTCTTGGGTTCTAACCTGTTGCCT (site CGTGCGTCTAG)	0.043
AGTGCGTCTTGGGTTCTAACCTGTTGCCT (site GGTGCGTCTAG)	0.241
AGTGCGTCTTGGGTTCTAACCTGTTGCCT (site TGTGCGTCTAG)	0.0164
AGTGCTCCTTGGGTTCTAACCTGTTGCGG (site AGAGCTCCTCC)	0.196
AGTGCTCCTTGGGTTCTAACCTGTTGCGG (site AGTGCTCCTCC)	0.18
AGTGTCACTTGGGTTCTAACCTGTTGCGG (site AGTGTCACTCC)	2.77
AGTGTCACTTGGGTTCTAACCTGTTGCGG (site GTGCAACCTAG)	0.0283
AGTTAATCTTGGGTTCTAACCTGTTGCTT (site AGCTACTCTAA)	0.0347
AGTTAATCTTGGGTTCTAACCTGTTGCTT (site AGTTAATCTAA)	0.0371
AGTTAGTCTTGGGTTCTAACCTGTTGCGG (site AATTAGTCTCC)	0.00949
AGTTAGTCTTGGGTTCTAACCTGTTGCGG (site AGTTAGTCTCC)	1.43
AGTTGCTCTTGGGTTCTAACCTGTTGCCT (site AGTTGCTCTAG)	0.468
AGTTGCTCTTGGGTTCTAACCTGTTGCCT (site GGTTGCACTAG)	0.268
AGTTGTCCTTGGGTTCTAACCTGTTGCGT (site AGTTGTCCTAA)	0.121
AGTTGTCCTTGGGTTCTAACCTGTTGCGT (site AGTTGTCCTAC)	1.21
AGTTGTCCTTGGGTTCTAACCTGTTGCGT (site AGTTGTCCTAG)	0.108
AGTTGTCCTTGGGTTCTAACCTGTTGCGT (site AGTTGTCCTAT)	0.251
AGTTTCACTTGGGTTCTAACCTGTTGCTA (site AGTTTCACTTA)	0.111
AGTTTCACTTGGGTTCTAACCTGTTGCTA (site GCCAAGGCTAG)	1.31
AGTTTCGCTTGGGTTCTAACCTGTTGCGG (site AGTATCGCTCC)	0.215

Sequence	recombinant barcode read abundance (log10)
AGTTTCGCTTGGGTTCTAACCTGTTGCGG (site AGTCTCGCTCC)	0.0337
AGTTTCGCTTGGGTTCTAACCTGTTGCGG (site AGTGTCGCTCC)	0.0655
AGTTTCGCTTGGGTTCTAACCTGTTGCGG (site AGTTTCGCTCC)	0.0842
ATAAGAGCTTGGGTTCTAACCTGTTGCCT (site ATAAAAGCTAG)	0.385
ATAAGAGCTTGGGTTCTAACCTGTTGCCT (site ATAACAGCTAG)	0.0202
ATAAGAGCTTGGGTTCTAACCTGTTGCCT (site ATAAGAGCTAG)	1.15
ATAAGAGCTTGGGTTCTAACCTGTTGCCT (site ATAATAGCTAG)	0.179
ATAAGCTCTTGGGTTCTAACCTGTTGCCG (site ATAAGCTCTCG)	1.92
ATAAGCTCTTGGGTTCTAACCTGTTGCCG (site GAGCAACCTAA)	0.0688
ATAAGTCCTTGGGTTCTAACCTGTTGCGA (site ACAAGTCCTCC)	0.869
ATAAGTCCTTGGGTTCTAACCTGTTGCGA (site ATAAGTCCTTC)	2.14
ATAATACCTTGGGTTCTAACCTGTTGCCT (site ACAATACCTAG)	0.135
ATAATACCTTGGGTTCTAACCTGTTGCCT (site ATAATACCTAG)	1.4
ATAATAGCTTGGGTTCTAACCTGTTGCCT (site ATAAAAGCTAG)	0.0804
ATAATAGCTTGGGTTCTAACCTGTTGCCT (site ATAACAGCTAG)	0.0342
ATAATAGCTTGGGTTCTAACCTGTTGCCT (site ATAAGAGCTAG)	0.0465
ATAATAGCTTGGGTTCTAACCTGTTGCCT (site ATAATAGCTAG)	1.63
ATACCACCTTGGGTTCTAACCTGTTGCCT (site AAACCACCTAG)	0.278
ATACCACCTTGGGTTCTAACCTGTTGCCT (site ACACCACCTAG)	1.24
ATACCACCTTGGGTTCTAACCTGTTGCCT (site AGACCACCTAG)	0.431
ATACCACCTTGGGTTCTAACCTGTTGCCT (site ATACCACCTAG)	1.77
ATACCTCCTTGGGTTCTAACCTGTTGCCT (site ATACCTCCTAG)	1.69
ATACCTCCTTGGGTTCTAACCTGTTGCCT (site CTAACTCCTAG)	0.148
ATACGTCCTTGGGTTCTAACCTGTTGCAT (site AGACGTCCTAC)	0.224
ATACGTCCTTGGGTTCTAACCTGTTGCAT (site ATACGTCCTAT)	1.12
ATAGCCACTTGGGTTCTAACCTGTTGCCT (site ATAGCAACTAG)	0.141

Sequence	recombinant barcode read abundance (log10)
ATAGCCACTTGGGTTCTAACCTGTTGCCT (site ATAGCCACTAG)	1.02
ATAGCCACTTGGGTTCTAACCTGTTGCCT (site ATAGCGACTAG)	0.0246
ATAGCCACTTGGGTTCTAACCTGTTGCCT (site ATAGCTACTAG)	0.0679
ATAGCGACTTGGGTTCTAACCTGTTGCCT (site ATAGCAACTAG)	1.18
ATAGCGACTTGGGTTCTAACCTGTTGCCT (site ATAGCCACTAG)	0.13
ATAGCGACTTGGGTTCTAACCTGTTGCCT (site ATAGCGACTAG)	1.54
ATAGCGACTTGGGTTCTAACCTGTTGCCT (site ATAGCTACTAG)	0
ATAGGAACTTGGGTTCTAACCTGTTGCCT (site ATAGGAACTAG)	1.4
ATAGGAACTTGGGTTCTAACCTGTTGCCT (site ATGGGCACTAG)	0.0276
ATAGGACCTTGGGTTCTAACCTGTTGCAG (site ATAGGACCTCT)	2.75
ATAGGACCTTGGGTTCTAACCTGTTGCAG (site ATATGTCCTCT)	0.328
ATAGGACCTTGGGTTCTAACCTGTTGCCA (site ATAGGACCTCG)	0.653
ATAGGACCTTGGGTTCTAACCTGTTGCCA (site ATAGGACCTTG)	1.57
ATAGGGACTTGGGTTCTAACCTGTTGCCT (site ATAGGGACTAG)	2.31
ATAGGGACTTGGGTTCTAACCTGTTGCCT (site GTAGCGACTAG)	0.177
ATAGGGACTTGGGTTCTAACCTGTTGCTA (site ATAAGGACTTA)	1.97
ATAGGGACTTGGGTTCTAACCTGTTGCTA (site ATACGGACTTA)	0.291
ATAGGGACTTGGGTTCTAACCTGTTGCTA (site ATAGGGACTTA)	2.91
ATAGGGACTTGGGTTCTAACCTGTTGCTA (site ATATGGACTTA)	0.759
ATAGTCCCTTGGGTTCTAACCTGTTGCCT (site ATAGTCCCTAG)	2.25
ATAGTCCCTTGGGTTCTAACCTGTTGCCT (site ATGGTCCCTAG)	0.644
ATAGTTACTTGGGTTCTAACCTGTTGCCT (site ATAGTTACTAG)	1.73
ATAGTTACTTGGGTTCTAACCTGTTGCCT (site ATGATTACTAG)	0.129
ATATACGCTTGGGTTCTAACCTGTTGCCT (site ATATACGCTAG)	1.84
ATATACGCTTGGGTTCTAACCTGTTGCCT (site CTATAGGCTAG)	0.0578

From the supplement of paper PMC11208160
